PubChem BioAssay (NCI)
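These data come from cells grown in 96-well plates and exposed to compound for 48 hours at five concentrations. TGI denotes the concentration required for complete inhibition of growth.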

What was measured:
Experiment in all cases: NCI anticancer screen, dose series, 48 h
NCI-H460 lung = test system: NCI-H460 lung
TK-10 renal = test system: TK-10 renal
HCC-2998 colon = test system: HCC-2998 colon
COLO 205 colon = test system: COLO 205 colon
HOP-92 NSCLC = test system: HOP-92 NSCLC
IGROV1 ovarian = test system: IGROV1 ovarian
EKVX NSCLC = test system: EKVX NSCLC
DU-145 prostate = test system: DU-145 prostate
CAKI-1 renal = test system: CAKI-1 renal
HCT-15 colon = test system: HCT-15 colon
T-47D breast = test system: T-47D breast
OVCAR-3 ovarian = test system: OVCAR-3 ovarian
SF-539 CNS = test system: SF-539 CNS
M14 melanoma = test system: M14 melanoma
MDA-MB-231 breast = test system: MDA-MB-231 breast
SR leukemia = test system: SR leukemia
NCI/ADR-RES ovarian = test system: NCI/ADR-RES ovarian
CCRF-CEM leukemia = test system: CCRF-CEM leukemia
UACC-62 melanoma = test system: UACC-62 melanoma
NCI-H23 lung = test system: NCI-H23 lung
RXF 393 renal = test system: RXF 393 renal
HT29 colon = test system: HT29 colon
SNB-19 CNS = test system: SNB-19 CNS
SK-MEL-5 melanoma = test system: SK-MEL-5 melanoma
A549 NSCLC = test system: A549 NSCLC
786-0 renal = test system: 786-0 renal
OVCAR-4 ovarian = test system: OVCAR-4 ovarian
KM12 colon = test system: KM12 colon
K-562 leukemia = test system: K-562 leukemia
SK-MEL-2 melanoma = test system: SK-MEL-2 melanoma
SK-MEL-28 melanoma = test system: SK-MEL-28 melanoma
MALME-3M melanoma = test system: MALME-3M melanoma
MCF7 breast = test system: MCF7 breast
HCT-116 colon = test system: HCT-116 colon
UO-31 renal = test system: UO-31 renal
HOP-62 NSCLC = test system: HOP-62 NSCLC
SK-OV-3 ovarian = test system: SK-OV-3 ovarian
BT-549 breast = test system: BT-549 breast
LOX IMVI melanoma = test system: LOX IMVI melanoma
OVCAR-8 ovarian = test system: OVCAR-8 ovarian
SN12C renal = test system: SN12C renal
SW-620 colon = test system: SW-620 colon
SF-295 CNS = test system: SF-295 CNS
RPMI-8226 leukemia = test system: RPMI-8226 leukemia
MDA-N = test system: MDA-N
SF-268 CNS = test system: SF-268 CNS
UACC-257 melanoma = test system: UACC-257 melanoma
NCI-H522 lung = test system: NCI-H522 lung
PC-3 prostate = test system: PC-3 prostate
U251 CNS = test system: U251 CNS
ACHN renal = test system: ACHN renal
OVCAR-5 ovarian = test system: OVCAR-5 ovarian
MDA-MB-435 = test system: MDA-MB-435
NCI-H226 lung = test system: NCI-H226 lung
HL-60(TB) leukemia = test system: HL-60(TB) leukemia
SNB-75 CNS = test system: SNB-75 CNS
A498 renal = test system: A498 renal
MOLT-4 leukemia = test system: MOLT-4 leukemia

O=C1/C(=C/c2cccc(Br)c2)CSC/C1=C\c1cccc(Br)c1 showed a TGI (NCI-H460 lung) of 7.26 µM, a TGI (TK-10 renal) of 16.8 µM and a TGI (HCC-2998 colon) of 3.3 µM. The TGI (COLO 205 colon) was 8.53 µM, the TGI (HOP-92 NSCLC) was 7.43 µM and the TGI (IGROV1 ovarian) was 7.11 µM. It also gave a TGI (EKVX NSCLC) of 19.9 µM, a TGI (DU-145 prostate) of 24.3 µM and a TGI (CAKI-1 renal) of 6.06 µM. The TGI (HCT-15 colon) was 15.4 µM, the TGI (T-47D breast) was 21.1 µM and the TGI (OVCAR-3 ovarian) was 9.98 µM. The TGI (SF-539 CNS) was 13.6 µM, the TGI (M14 melanoma) was 6.14 µM and the TGI (MDA-MB-231 breast) was 48.9 µM. It also gave a TGI (SR leukemia) greater than 100 µM, a TGI (NCI/ADR-RES ovarian) of 25.5 µM and a TGI (CCRF-CEM leukemia) of 6.45 µM. It also gave a TGI (UACC-62 melanoma) of 3.14 µM, a TGI (NCI-H23 lung) of 9.03 µM and a TGI (RXF 393 renal) of 3.79 µM. The TGI (HT29 colon) was 5.67 µM, the TGI (SNB-19 CNS) was 10.6 µM and the TGI (SK-MEL-5 melanoma) was 3.59 µM. The TGI (A549 NSCLC) was 41.5 µM, the TGI (786-0 renal) was 11.8 µM and the TGI (OVCAR-4 ovarian) was 13.1 µM. It also gave a TGI (KM12 colon) of 4.43 µM, a TGI (K-562 leukemia) of 6.74 µM and a TGI (SK-MEL-2 melanoma) of 12 µM. It also gave a TGI (SK-MEL-28 melanoma) of 7.12 µM, a TGI (MALME-3M melanoma) of 4.43 µM and a TGI (MCF7 breast) of 20.5 µM. For the same compound, the TGI (HCT-116 colon) was 4.33 µM, the TGI (UO-31 renal) was 3.71 µM and the TGI (HOP-62 NSCLC) was 6.74 µM. For the same compound, the TGI (SK-OV-3 ovarian) was 42 µM, the TGI (BT-549 breast) was 4.47 µM and the TGI (LOX IMVI melanoma) was 4.82 µM. The TGI (OVCAR-8 ovarian) was 9.52 µM, the TGI (SN12C renal) was 5.22 µM and the TGI (SW-620 colon) was 11.2 µM. The TGI (SF-295 CNS) was 5.14 µM, the TGI (RPMI-8226 leukemia) was 6.42 µM and the TGI (MDA-N) was 6.98 µM. For the same compound, the TGI (SF-268 CNS) was 24.2 µM, the TGI (UACC-257 melanoma) was 5.9 µM and the TGI (NCI-H522 lung) was 4.14 µM. The TGI (PC-3 prostate) was 10.4 µM, the TGI (U251 CNS) was 3.53 µM and the TGI (ACHN renal) was 9.88 µM. The TGI (OVCAR-5 ovarian) was 15.5 µM.
In the case of CC(=O)OCC1OC(SC2OC(COC(C)=O)C(OC(C)=O)C(OC(C)=O)C2OC(C)=O)C(OC(C)=O)C(OC(C)=O)C1OC(C)=O (stereo not given), the TGI (NCI-H460 lung) is reported as greater than 100 µM, the TGI (TK-10 renal) is reported as greater than 100 µM and the TGI (HCC-2998 colon) is reported as greater than 100 µM. It also gave a TGI (COLO 205 colon) greater than 100 µM, a TGI (IGROV1 ovarian) greater than 100 µM and a TGI (EKVX NSCLC) greater than 100 µM. The TGI (DU-145 prostate) was greater than 100 µM, the TGI (CAKI-1 renal) was greater than 100 µM and the TGI (HCT-15 colon) was greater than 100 µM. For the same compound, the TGI (MDA-MB-435) was greater than 100 µM, the TGI (T-47D breast) was greater than 100 µM and the TGI (NCI-H226 lung) was greater than 100 µM. The TGI (OVCAR-3 ovarian) was greater than 100 µM, the TGI (SF-539 CNS) was greater than 100 µM and the TGI (MDA-MB-231 breast) was greater than 100 µM. It also gave a TGI (SR leukemia) greater than 100 µM, a TGI (NCI/ADR-RES ovarian) greater than 100 µM and a TGI (CCRF-CEM leukemia) greater than 100 µM. The TGI (HL-60(TB) leukemia) was greater than 100 µM, the TGI (UACC-62 melanoma) was greater than 100 µM and the TGI (NCI-H23 lung) was greater than 100 µM. The TGI (RXF 393 renal) was greater than 100 µM, the TGI (HT29 colon) was greater than 100 µM and the TGI (SNB-19 CNS) was greater than 100 µM. The TGI (SK-MEL-5 melanoma) was greater than 100 µM, the TGI (A549 NSCLC) was greater than 100 µM and the TGI (SNB-75 CNS) was greater than 100 µM. It also gave a TGI (786-0 renal) greater than 100 µM, a TGI (OVCAR-4 ovarian) greater than 100 µM and a TGI (KM12 colon) greater than 100 µM. The TGI (K-562 leukemia) was greater than 100 µM, the TGI (SK-MEL-28 melanoma) was greater than 100 µM and the TGI (MALME-3M melanoma) was greater than 100 µM. It also gave a TGI (MCF7 breast) greater than 100 µM, a TGI (HCT-116 colon) greater than 100 µM and a TGI (UO-31 renal) greater than 100 µM. For the same compound, the TGI (HOP-62 NSCLC) was greater than 100 µM, the TGI (SK-OV-3 ovarian) was greater than 100 µM and the TGI (BT-549 breast) was greater than 100 µM. The TGI (A498 renal) was greater than 100 µM, the TGI (LOX IMVI melanoma) was greater than 100 µM and the TGI (OVCAR-8 ovarian) was greater than 100 µM. The TGI (SN12C renal) was greater than 100 µM, the TGI (SW-620 colon) was greater than 100 µM and the TGI (SF-295 CNS) was greater than 100 µM. For the same compound, the TGI (RPMI-8226 leukemia) was greater than 100 µM, the TGI (MDA-N) was greater than 100 µM and the TGI (SF-268 CNS) was greater than 100 µM. For the same compound, the TGI (UACC-257 melanoma) was greater than 100 µM, the TGI (U251 CNS) was greater than 100 µM and the TGI (MOLT-4 leukemia) was greater than 100 µM. For the same compound, the TGI (ACHN renal) was greater than 100 µM and the TGI (OVCAR-5 ovarian) was greater than 100 µM.
